# Data published in patent US9663460B2, “Sulfur derivatives as chemokine receptor modulators” (ALLERGAN, INC., priority 2010, dated 2017).
# Molecular target: CCR2 (Homo sapiens (Human), UniProt P41597)
# Assay: Calcium activity assayed on the FLIPR Tetra in HEK-Gqi5 cells stably expressing CCR2
# Assay type: cell-based
# Conditions: FLIPR Tetra calcium assay
# Chain of CCR2 (P41597 whole entry, species assumed): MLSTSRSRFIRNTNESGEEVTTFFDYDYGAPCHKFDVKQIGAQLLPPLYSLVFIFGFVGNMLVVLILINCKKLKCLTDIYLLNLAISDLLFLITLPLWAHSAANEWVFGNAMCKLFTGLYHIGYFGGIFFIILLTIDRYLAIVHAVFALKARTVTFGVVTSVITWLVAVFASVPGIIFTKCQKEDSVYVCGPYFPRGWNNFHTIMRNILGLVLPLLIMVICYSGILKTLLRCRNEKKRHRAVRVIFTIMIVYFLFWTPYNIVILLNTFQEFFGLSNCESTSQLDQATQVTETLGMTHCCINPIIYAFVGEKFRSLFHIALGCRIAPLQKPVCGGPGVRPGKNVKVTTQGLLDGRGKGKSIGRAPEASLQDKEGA
CCR2 % ANTAGONISM [%],IC50 [µM],Compound
28,2.43,"CC(C)(C)OC(=O)Nc1nc(CSc2ccc(Cl)cc2NS(=O)(=O)c2cc3ccccc3o2)cs1 [tert-butyl {4-[({2-[(1-benzofuran-2-ylsulfonyl)amino]-4-chlorophenyl}thio)methyl]-1,3-thiazol-2-yl}carbamate]"
40,2,CC(C)(C)OC(=O)Nc1cc(CSc2ccc(Cl)cc2NS(=O)(=O)c2cc3ccccc3o2)ccn1 [tert-butyl {4-[({2-[(1-benzofuran-2-ylsulfonyl)amino]-4-chlorophenyl}thio)methyl]pyridin-2-yl}carbamate]
82,0.527,CC(C)(C)OC(=O)Nc1cccc(C[S+]([O-])c2ccc(Cl)cc2NS(=O)(=O)c2cc3ccccc3o2)n1 (stereo not drawn) [tert-butyl {6-[({2-[(1-benzofuran-2-ylsulfonyl)amino]-4-chlorophenyl}sulfinyl)methyl]pyridin-2-yl}carbamate]
